Measurements reported in patent US20160031935A1, “SMALL MOLECULE MODULATORS OF PCSK9 AND METHODS OF USE THEREOF” (ADAERATA, LIMITED PARTNERSHIP, priority 2013, published 2016).

Legend:
cell surface LDLR = assay: FACS assay of LDLR at the HepG2 cell surface; format: cell-based, human; conditions: 10 μM, 24 h; LDLR positive HepG2 cells
Method: The ability of PCSK9 inhibitory compounds to prevent the activity of PCSK9 on LDLR at the cell surface was also measured by using flow cytometry analyses as described in Benjannet S. et al. J. Biol. Chem. 285: 40965-40978, 2010. The level of LDLR at the HepG2 cell surface was measured by using anti human LDLR antibody (1:100, mAb-C7, Santa Cruz Biotechnology) and a secondary Alexa Fluor 647 donkey anti-mouse (Molecular Probes) antibody. Viable cells (PI-negative) were then analyzed by FACS for both PI and Alexa Fluor 647 using the FACS BD LSR (BD Biosciences). Cell surface LDLR was reported relative to control (untreated cells). The inhibition of the PCSK9 function in these assays was detected by an increased number of positive cells which correlated with an increased expression of LDLR at the cell surface.
More particularly, Human hepatoblastoma HepG2 cells (4×10^5 cells/well) were seeded in 12 well plates (Greiner BioOne) in complete media and cultured for 20 hours, at 37° C., followed by a 1 hour wash in serum free media at 37° C. Next, the wash media was removed and the cells were incubated overnight (24 hours) with 0.9 ml/well incubation media containing compounds at 10 uM or DMSO control (0.4% final). After one rinse with buffer A followed by another rinse with EDTA solution (2.5 mM EDTA-2Na), the cells were detached by incubation in the presence of fresh EDTA solution (1 ml) at 37° C. for 20 minutes. All the steps following cell detachment were conducted on ice or 4° C. To terminate the detachment, the cells were transferred in a 15 ml tube containing 3 ml of buffer A and centrifuged immediately for 5 minutes at 900 rpm (100 g) (4° C.). The cells were then resuspended in 500 ul buffer A together with 1:250 human LDLR antibody and incubated on ice for 10 minutes. Cells were washed once with 5 ml buffer A, centrifuged for 5 minutes, resuspended in 500 ul buffer A containing 1:500 Alexa Fluor 647 secondary antibody and incubated on ice for 5 min. After the staining, cells were washed once with 5 ml buffer A, centrifuged for 5 minutes and resuspended in 300 ul buffer A containing 1.67 ug/ml propidium iodide. A fixed number (2,000 cells) of viable cells (propidium iodide negative) were then analyzed by FACS for Alexa Fluor 647 (cell surface LDLR) using a FACS-CyAn ADP flow cytometer (Beckman Coulter (DAKO)) and Summit software (Summit Software Inc.).
Human HepG2 cell line: ATCC, HB-8065 Seeding media: complete media—EMEM (high glucose+sodium pyruvate) (Wisent)+10% FBS Wash media: serum free media—EMEM (high glucose+sodium pyruvate) (Wisent) Incubation media with compounds: EMEM (high glucose+sodium pyruvate) (Wisent)+0.07% BSA (Sigma-Aldrich) BufferA: 1×D-PBS without calcium and magnesium (Wisent 311-425-CL)+0.5% BSA (Sigma A7409-50ml)+[…] Glucose (Wisent 609-036-EL). Primary antibody: human LDLR antibody, monoclonal Mouse IgG1 clone #472413 (MAB2148, R&D Systems) Secondary antibody: Alexa Fluor® 647 goat anti-mouse IgG (H+L)*2 mg/mL*(A21235, Molecular Probes) Propidium iodide: 1 mg/ml solution (P4864, Sigma)

WT PCSK9(+V5) = molecular target: T1, WT PCSK9(+V5) (Homo sapiens, UniProt Q8NBP7); assay: PCSK9 secretion assay: PCSK9 in media and cells by ELISA (media/cell ratio); format: cell-based; conditions: 10 μM; HepG2 cells stably expressing WT PCSK9(+V5), 24 h
T1 construct: expressed in transfected cells
Method: In 12-well plates (Greiner BioOne™), HepG2 cells stably expressing PCSK9(+V5) were seeded at a density of 1×10^6/well in complete media and incubated for 20 hours, at 37° C. Cells were rinsed once with 2 ml/well of D-PBS (+Calcium, +Magnesium) (Wisent) followed by addition of 0.5 ml/well incubation media (+0.07% BSA) containing the inhibitory compounds at various concentrations (11, 33, 100 μM) or DMSO control (0.4% final) and overnight (24 hours) incubation. 24 hours-conditioned media was collected, centrifuged at 130×g for 5 minutes to remove cell debris, and the supernatant removed for PCSK9 quantification by ELISA (100 μl of 1:30 dilution). Cells were washed once with ice-cold D-PBS (+Calcium, +Magnesium) (Wisent), then lysed with 250 ul/well of radioimmunoprecipitation assay buffer (RIPA) (50 mM Tris-HCl, pH 7.8, 150 mM NaCl, 1% Nonident P-40, 0.5% sodium deoxycholate, 0.1% SDS) containing a mixture of protease inhibitors (Roche Applied Science) for 30 min on ice, and pelleted at 11,300×g for 5 minutes. Supernatant was removed for cellular PCSK9 quantification by ELISA (100 μl of 1:20 dilution) and total protein determination by the Bio-Rad™ DC Protein assay (Bio-Rad) (4 μl cell lysate in duplicate) (Dubuc G, Tremblay M, Pare G, Jacques H, Hamelin J, Benjannet S, Boulet L, Genest J, Bernier L, Seidah N G, Davignon J. 2010. A new method for measurement of total plasma PCSK9: clinical applications. J Lipid Res. 51:140-149). The ratio of PCSK9 concentration of media (M) over cells (C) was determined and compounds which decreased M/C by >30% were considered active.
HepG2 cells stably expressing WT PCSK9(+V5) were incubated overnight (24 hours) in the absence (DMSO) or presence of 10 μM, 100 μM or increasing concentrations (11, 33, 100 μM) of a tested compound. 24 hours-conditioned media was collected, centrifuged, and the supernatant removed for PCSK9 quantification by ELISA (100 μl of 1:30 dilution). Cells were lysed with 250 ul/well of radioimmunoprecipitation assay buffer (RIPA) (50 mM Tris-HCl, pH 7.8, 150 mM NaCl, 1% Nonident P-40, 0.5% sodium deoxycholate, 0.1% SDS) containing a mixture of protease inhibitors (Roche Applied Science), and pelleted at 11,300×g for 5 minutes. Supernatant was removed for cellular PCSK9 quantification by ELISA (100 μl of 1:20 dilution) and total protein determination by the Bio-Rad DC Protein assay (Bio-Rad) (Dubuc G, Tremblay M, Pare G, Jacques H, Hamelin J, Benjannet S, Boulet L, Genest J, Bernier L, Seidah N G, Davignon J. 2010. A new method for measurement of total plasma PCSK9: clinical applications. J Lipid Res. 51:140-149). Over 165 compounds were subjected to a first screen at 100 μM by PCSK9 secretion assay.

T1 sequence (Q8NBP7 153-692): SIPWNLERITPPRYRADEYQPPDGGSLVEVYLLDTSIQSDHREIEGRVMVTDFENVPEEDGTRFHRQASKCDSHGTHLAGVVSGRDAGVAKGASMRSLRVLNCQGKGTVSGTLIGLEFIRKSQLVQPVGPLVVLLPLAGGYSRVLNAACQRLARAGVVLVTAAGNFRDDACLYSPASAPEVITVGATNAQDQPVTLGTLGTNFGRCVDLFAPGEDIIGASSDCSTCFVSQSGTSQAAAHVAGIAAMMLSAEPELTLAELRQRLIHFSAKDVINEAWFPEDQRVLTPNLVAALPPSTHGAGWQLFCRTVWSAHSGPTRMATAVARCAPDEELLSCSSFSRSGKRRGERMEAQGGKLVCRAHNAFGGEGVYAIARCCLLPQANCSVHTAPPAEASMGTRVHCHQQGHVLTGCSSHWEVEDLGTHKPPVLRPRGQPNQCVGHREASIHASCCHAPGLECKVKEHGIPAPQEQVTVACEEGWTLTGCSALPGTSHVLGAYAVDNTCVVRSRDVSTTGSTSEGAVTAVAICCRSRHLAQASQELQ

SMILES	FACS-LDLR (% DMSO Cnt) (cell surface LDLR)	Secretion Inhibition (% Activity) (WT PCSK9(+V5)) [%]
CCCCCCCCCC(=O)N[C@H](C(=O)N[C@@H](Cc1ccccc1)C(=O)N[C@H](C)C(=O)N[C@@H](CCC(N)=O)C(O)C(F)(F)F)C(C)C (single isomer, unassigned) [Example 60]	138 ± 8	73
CC(C)[C@H](NC(=O)c1ccc(-c2ccccc2)cc1)C(=O)N[C@@H](Cc1ccccc1)C(=O)N[C@@H](C)C(=O)NC(CCC(N)=O)C(O)C(F)(F)F (stereo partly drawn) [Example 24, N-((2S)-1-(((2S)-1-(((2S)-1-((6-Amino-1,1,1-trifluoro-2-hydroxy-6-oxohexan-3-yl)amino)-1-oxopropan-2-yl)amino)-1-oxo-3-phenylpropan-2-yl)amino)-3-methyl-1-oxobutan-2-yl)-[1,1′-biphenyl]-4-carboxamide]	116 ± 5	88
CC(C)[C@H](NC(=O)c1ccc(-c2ccc(F)cc2)cc1)C(=O)N[C@@H](Cc1ccccc1)C(=O)N[C@@H](C)C(=O)NC(CCC(N)=O)C(O)C(F)(F)F (stereo partly drawn) [Example 52, N-((2S)-1-(((2S)-1-(((2S)-1-((6-Amino-1,1,1-trifluoro-2-hydroxy-6-oxohexan-3-yl)amino)-1-oxopropan-2-yl)amino)-1-oxo-3-phenylpropan-2-yl)amino)-3-methyl-1-oxobutan-2-yl)-4′-fluoro-[1,1′-biphenyl]-4-carboxamide]	138 ± 20	79
CSCC[C@H](NC(=O)c1ccc(-c2ccccc2)cc1)C(=O)N[C@@H](Cc1ccccc1)C(=O)N[C@@H](C)C(=O)NC(CCC(N)=O)C(O)C(F)(F)F (stereo partly drawn) [Example 75, N-((5S,8S,11S)-17-amino-8-benzyl-11-methyl-6,9,12,17-tetraoxo-14-(2,2,2-trifluoro-1-hydroxyethyl)-2-thia-7,10,13-triazaheptadecan-5-yl)-[1,1′-biphenyl]-4-carboxamide]	174 ± 41	100
CC(C)[C@H](NC(=O)c1ccc(C2(C(F)(F)F)N=N2)cc1)C(=O)N[C@@H](Cc1ccccc1)C(=O)N[C@@H](C)C(=O)NC(CCC(N)=O)C(O)C(F)(F)F (stereo partly drawn) [Example 29, N-((2S)-1-(((2S)-1-(((2S)-1-((6-Amino-1,1,1-trifluoro-2-hydroxy-6-oxohexan-3-yl)amino)-1-oxopropan-2-yl)amino)-1-oxo-3-phenylpropan-2-yl)amino)-3-methyl-1-oxobutan-2-yl)-4-(3-(trifluoromethyl)-3H-diazirin-3-yl)benzamide]	233 ± 50	83
CCCCCCCCCC(=O)N[C@H](C(=O)N[C@@H](Cc1ccccc1)C(=O)N[C@H](C(=O)NC(CCC(N)=O)C(O)C(F)(F)F)C(C)C)C(C)C (stereo partly drawn) [Example 58, N-((2S)-1-(((2S)-1-(((2S)-1-((6-amino-1,1,1-trifluoro-2-hydroxy-6-oxohexan-3-yl)amino)-3-methyl-1-oxobutan-2-yl)amino)-1-oxo-3-phenylpropan-2-yl)amino)-3-methyl-1-oxobutan-2-yl)decanamide]	166 ± 28	81
CC(C)[C@H](NC(=O)c1ccc(-c2ccccc2)cc1)C(=O)N[C@H](Cc1ccccc1)C(=O)N[C@@H](C)C(=O)NC(CCC(N)=O)C(O)C(F)(F)F (stereo partly drawn) [Example 70, N-((2S)-1-(((2R)-1-(((2S)-1-((6-Amino-1,1,1-trifluoro-2-hydroxy-6-oxohexan-3-yl)amino)-1-oxopropan-2-yl)amino)-1-oxo-3-phenylpropan-2-yl)amino)-3-methyl-1-oxobutan-2-yl)-[1,1′-biphenyl]-4-carboxamide]	118 ± 18	74
CC(C)[C@H](NC(=O)c1ccc(-c2ccccc2)cc1)C(=O)N[C@@H](Cc1ccccc1)C(=O)NC1(C(=O)N[C@@H](CCC(N)=O)C(O)C(F)(F)F)CCC1 (single isomer, unassigned) [Example 66]	122 ± 11	92
CCCCCCCCCC(=O)N[C@H](C(=O)N[C@@H](Cc1ccccc1)C(=O)N[C@@H](Cc1ccccc1)C(=O)NC(CCC(N)=O)C(O)C(F)(F)F)C(C)C (stereo partly drawn) [Example 59, N-((2S)-1-(((2S)-1-(((2S)-1-((6-Amino-1,1,1-trifluoro-2-hydroxy-6-oxohexan-3-yl)amino)-1-oxo-3-phenylpropan-2-yl)amino)-1-oxo-3-phenylpropan-2-yl)amino)-3-methyl-1-oxobutan-2-yl)decanamide]	265 ± 35	82
